Data set [1] deals with GABA-A receptor. In words: Radioligand binding at the GABA-A receptor. Further details: species or system rat. The settings on record: mean of two-three independent experiments; read-out: GABA-A Ki ± SEM. As for the experimental part:
The study was conducted in accordance with previously established protocols, and performed in duplicate. Rat brains were homogenized and prepared following the described methodologies. The assay was carried out directly on 96-well microplates containing 50 mM Tris-HCl buffer (pH 7.4) in a total volume of 300 μL. […] To determine nonspecific binding, 100 μM GABA was included in the mixture. The 96-well microplates were incubated at 0 °C for 10 min, followed by rapid filtration through FilterMate B glass fiber filters (PerkinElmer, USA) using a Harvester-96 MACH III FM (Tomtec, USA). The filters were gently dried in a microwave and sealed in plastic bags (PerkinElmer, USA). Each filter was then immersed in 10 mL of Ultima Gold MV liquid scintillation cocktail (PerkinElmer, USA). […] Ki values were calculated using the Cheng and Prusoff equation, and statistical analyses were conducted using GraphPad Prism (version 4.0, San Diego, CA, USA)

Data set [2] can be described thus: PAMPA permeability assay. It counts as in vitro ADME. The settings on record: PBS pH 7.4, 100 μM, zolpidem tested as tartrate; for Papp at 5 h, 100 μM: pH 7.4, PAMPA, read-out: Permeability Pe ± SD; for Permeability Pe ± SD: 5 h. The method, then: PAMPA. The precoated PAMPA Plate System Gentest, obtained from Corning (Tewksbury, MA, USA), was used for the permeability study. The system includes a 96-well receiver filter plate precoated with structured phospholipid layers and a matching donor microplate. Stock solutions of the test compounds and reference drugs were prepared in PBS buffer (pH 7.4) at a final concentration of 100 μM. Each compound solution (200 μL) was added to the donor wells and incubated at room temperature for 5 h. The quantity of molecules that penetrated from the donor wells to the acceptor wells through the phospholipid membrane was determined using UPLC-MS spectrometry (Waters ACQUITY TQD system with the TQ Detector, Waters, Milford, USA) with an internal standard. Permeability coefficients (Pe, cm/s) were calculated according to the formula provided by the manufacturer.
For orientation: The PAMPA barrier holds no transporters, so it reflects passive diffusion.

The target of data set [3] is T1, α1β2γ2 GABA-A receptor (Homo sapiens, UniProt P14867+P18507).
T1 construct: expressed in transfected cells
T1 sequence (P14867 28-456): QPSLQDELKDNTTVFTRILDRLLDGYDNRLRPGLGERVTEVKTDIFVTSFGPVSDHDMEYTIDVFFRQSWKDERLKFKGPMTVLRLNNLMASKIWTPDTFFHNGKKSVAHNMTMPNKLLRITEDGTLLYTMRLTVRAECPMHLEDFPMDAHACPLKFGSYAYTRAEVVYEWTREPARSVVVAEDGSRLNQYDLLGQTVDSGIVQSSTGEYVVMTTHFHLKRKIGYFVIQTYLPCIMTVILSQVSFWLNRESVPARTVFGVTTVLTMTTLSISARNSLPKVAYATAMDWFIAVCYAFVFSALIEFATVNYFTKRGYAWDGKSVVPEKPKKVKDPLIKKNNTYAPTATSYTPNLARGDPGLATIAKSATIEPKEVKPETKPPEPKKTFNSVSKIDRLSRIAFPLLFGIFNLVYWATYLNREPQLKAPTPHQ
T1 sequence (P47870 25-512 partner limits assumed): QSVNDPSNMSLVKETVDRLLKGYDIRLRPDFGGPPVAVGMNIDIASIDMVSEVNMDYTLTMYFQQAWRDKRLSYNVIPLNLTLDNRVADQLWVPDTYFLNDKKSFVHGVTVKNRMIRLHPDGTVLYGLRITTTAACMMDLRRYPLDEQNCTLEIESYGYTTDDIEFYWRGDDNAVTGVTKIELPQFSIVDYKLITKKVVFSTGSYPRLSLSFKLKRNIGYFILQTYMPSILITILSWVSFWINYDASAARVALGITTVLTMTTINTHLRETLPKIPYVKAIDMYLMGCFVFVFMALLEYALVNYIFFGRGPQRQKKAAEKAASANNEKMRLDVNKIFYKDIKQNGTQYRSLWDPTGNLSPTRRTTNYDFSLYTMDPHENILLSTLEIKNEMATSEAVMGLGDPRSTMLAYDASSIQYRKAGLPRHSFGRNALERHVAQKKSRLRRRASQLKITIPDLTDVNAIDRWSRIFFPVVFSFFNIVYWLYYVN
T1 sequence (P18507 40-475): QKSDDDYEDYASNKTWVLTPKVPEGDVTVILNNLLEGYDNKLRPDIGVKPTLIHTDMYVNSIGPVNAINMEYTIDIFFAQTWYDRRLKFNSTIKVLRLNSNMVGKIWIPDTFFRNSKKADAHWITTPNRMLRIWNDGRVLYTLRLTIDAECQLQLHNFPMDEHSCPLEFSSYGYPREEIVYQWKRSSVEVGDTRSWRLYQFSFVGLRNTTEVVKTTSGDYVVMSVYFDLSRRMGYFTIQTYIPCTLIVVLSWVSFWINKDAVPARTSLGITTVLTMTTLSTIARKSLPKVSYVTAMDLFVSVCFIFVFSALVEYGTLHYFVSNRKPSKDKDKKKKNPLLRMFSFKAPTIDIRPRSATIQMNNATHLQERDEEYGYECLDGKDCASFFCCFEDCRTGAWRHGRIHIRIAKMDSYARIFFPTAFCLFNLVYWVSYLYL
In words: Electrophysiological studies (QPatch16X automated patch-clamp), PAM efficacy. It counts as cell-based. For orientation: In patch-clamp work, channel activity is measured electrically.

The test system of data set [4] is SH-SY5Y cells. Nature of the data set: Intracellular calcium concentration after 6-OHDA (Fluo-4). The settings on record: 50 μM pretreatment 1 h, then 6-OHDA 250 μM 1 h. It counts as cell-based, human. As for the experimental part: 7 (A). Effect of 6-Hydroxydopamine (6-OHDA) on intracellular calcium concentration [Ca^2+] determined by Fluo-4 AM. After pretreatment with tested compounds (50 μM) or vehicle (0.5% DMSO, v/v) for 1 h, the cells were incubated with 6-Hydroxydopamine (6-OHDA, 250 μM) for 1 h. 6-OHDA control: cells treated with 250 μM of 6-OHDA. […]. DMSO control: cells treated with 0.5% DMSO only. Data are presented as the mean ± SD from 2–3 independent experiments. Experiments were carried on with ImageXpress Micro XLS (Molecular Devices). (B) The level of ROS generation was determined by Cell ROX dye. After pretreatment with tested compounds (50 μM) or vehicle (0.5% DMSO, v/v) for 1 h, the cells were incubated with hydrogen peroxide (H2O2, 300 μM) for 1 h. H2O2 control: cells treated with H2O2 (300 μM). DMSO control: cells treated with 0.5% DMSO only. Data are presented as the mean ± SD from 2–3 independent experiments. Experiments were carried on with the ImageXpress Micro XLS (Molecular Devices).
The SH-SY5Y human neuroblastoma cell line was maintained according to established protocols. The cells, obtained from the American Type Culture Collection (ATCC), were cultured in Dulbecco’s Modified Eagle’s Medium (DMEM, high glucose; Thermo Fisher), supplemented with 10% fetal bovine serum (Thermo Fisher), 100 IU/ml penicillin (Merck), and 100 μg/mL streptomycin (Merck). They were grown in 75 cm^2 flasks (Nunc) at 37 °C in a humidified atmosphere containing 5% CO2. For compound evaluation, SH-SY5Y cells were plated in 96-well plates (Falcon) at a density of 2 × 10^4 cells per well. The cells were allowed to adhere and grow for 24 h in an incubator set to 37 °C and 5% CO2 before starting the experiments. Stock solutions of both test and reference compounds were prepared at a concentration of 10^–2 M. A minimum of 1 mg of each compound was dissolved in dimethyl sulfoxide (DMSO). Serial dilutions were made in DMSO, then further diluted in PBS, mixed, and added to the cell culture medium.
The intracellular Ca^2+ levels were assessed using a homogeneous cell-based assay with the Fluo-4 Direct Calcium Assay Kit (Thermo Fisher). Following incubation with the tested compounds, the supernatant was discarded, and the cells were incubated with 1 μM Fluo-4/AM in FluoroBrite DMEM (Thermo Fisher) for 1 h at 37 °C. The results were expressed as a percentage relative to the control (DMSO). Fluorescence intensity was recorded using the ImageXpress Micro XLS system (Molecular Devices).
Background: Calcium flux is commonly read through the fluorescence of an indicator in the cells.

For data set [5], the system named is SH-SY5Y cells. In words: ToxiLight assay (cell membrane damage). Type of data set: cell-based. The following applies: Table S1, 24 h. The method, then: Damage to the cell membrane was assessed using the bioluminescent ToxiLight bioassay (Lonza), a profound method for detecting cell toxicity. Following 24 h of treatment, 5 μL of the supernatant above the sediment was transferred to a 384-well plate (PerkinElmer). Subsequently, 20 μL of Adenylate Kinase Detection Reagent (AKDR) was added to each well. Luminescence was recorded after a 10 min incubation period using a POLARstar Omega plate reader (BMG Labtech). Results are presented as a percentage relative to the control sample (cells lysed), reflecting the proportion of dead cells compared to the control.
(§1) 1. Cytotoxicity studies for selected compounds
Table S1. The viability of the cells SH-SY5Y after treatment with tested compounds for 24 the results are expressed as a percentage of dead cells with luminescence ToxiLight Assay. The results are expressed as a per cent of control with whole lysis cells. N.C. not countable […]
Table S2. The viability of the cells SH-SY5Y after treatment with tested compounds for 24 h the results are expressed as a percentage of live cells with fluorescence PrestoBlue Assay. The results are expressed as a per cent of vehicle (DMSO). […]

Data set [6] concerns SH-SY5Y cells. In words: PrestoBlue cell viability assay. The following applies: Table S2, 24 h. Type of data set: cell-based. As for the experimental part: Cell viability was determined using the Presto Blue reagent (ThermoFisher) following the manufacturer’s instructions.
as §1
Table S1. The viability of the cells SH-SY5Y after treatment with tested compounds for 24 the results are expressed as a percentage of dead cells with luminescence ToxiLight Assay. The results are expressed as a per cent of control with whole […]
percentage of live cells with fluorescence PrestoBlue Assay. The results are expressed as a per cent of vehicle (DMSO).

Values joined by “and” are separate entries in the source; they are usually repeats but may differ in a detail not shown here. Equal values may be shown once. Where a name gives a salt, the structure may show the parent alone.

The term Ki denotes a measure of affinity in units of concentration, obtained from inhibition or displacement. `Cc1ccc2nc(-c3ccc(F)cc3)c(CC(=O)N3CCN(C)CC3)n2c1` [Compound 4, 2-[2-(4-Fluorophenyl)-6-methylimidazo[1,2-a]pyridin-3-yl]-1-(4-methylpiperazin-1-yl)ethan-1-one formate salt]: in data set [1], the Ki was found to be 278 ± 43 nM.
With `Cc1ccc2nc(-c3ccc(F)cc3)c(CC(=O)N3CCNCC3)n2c1` [Compound 5, 2-[2-(4-Fluorophenyl)-6-methylimidazo[1,2-a]pyridin-3-yl]-1-(piperazin-1-yl)ethan-1-one], in data set [2], the Papp at 5 h, 100 μM worked out at 3.35 ± 0.4 ×10⁻⁶ cm/s.
With `Cc1ccc2nc(-c3ccc(F)cc3)c(CC(=O)N3CCC(C)CC3)n2c1` [Compound 7, 2-[2-(4-Fluorophenyl)-6-methylimidazo[1,2-a]pyridin-3-yl]-1-(4-methylpiperidin-1-yl)ethan-1-one], the Ki in data set [1] turned out to be 204 ± 20.6 nM.
Still for that read-out and setting: next, `Cc1ccc2nc(-c3ccc(F)cc3)c(CC(=O)N3CCN(C(C)C)CC3)n2c1` [Compound 8, 2-[2-(4-Fluorophenyl)-6-methylimidazo[1,2-a]pyridin-3-yl]-1-[4-(propan-2-yl)piperazin-1-yl]ethan-1-one]: 5230 ± 510 nM.
Still for that read-out and setting: to `Cc1ccc2nc(-c3ccc(F)cc3)c(CC(=O)N3CCN(C4CC4)CC3)n2c1` [Compound 9, 1-(4-Cyclopropylpiperazin-1-yl)-2-[2-(4-fluorophenyl)-6-methylimidazo[1,2-a]pyridin-3-yl]ethan-1-one] belongs 1340 ± 46 nM; to `Cc1ccc2nc(-c3ccc(F)cc3)c(CC(=O)N3CCN(CC(C)C)CC3)n2c1` [Compound 10, 2-[2-(4-Fluorophenyl)-6-methylimidazo[1,2-a]pyridin-3-yl]-1-[4-(2-methylpropyl)piperazin-1-yl]ethan-1-one], 3330 ± 374 nM; to `Cc1ccc2nc(-c3ccc(F)cc3)c(CC(=O)N3CCN(C(C)(C)C)CC3)n2c1` [Compound 11, 1-(4-tert-Butylpiperazin-1-yl)-2-[2-(4-fluorophenyl)-6-methylimidazo[1,2-a]pyridin-3-yl]ethan-1-one], 7820 ± 1720 nM.
On the same count and under the same terms, next, `Cc1ccc2nc(-c3ccc(F)cc3)c(CC(=O)N3CC4CCCCC4C3)n2c1` (stereo not shown) [Compound 12, 2-[2-(4-Fluorophenyl)-6-methylimidazo[1,2-a]pyridin-3-yl]-1-(octahydro-1H-isoindol-2-yl)ethan-1-one]: 517 ± 61.2 nM.
On to `Cc1ccc2nc(-c3ccc(F)cc3)c(CC(=O)N3CCCCCC3)n2c1` [Compound 13, 1-(Azepan-1-yl)-2-(2-(4-fluorophenyl)-6-methylimidazo[1,2-a]pyridin-3-yl)ethan-1-one], for which, in data set [1], the Ki is 453 ± 59.3 nM.
On the same count and under the same terms, next, `Cc1ccc2nc(-c3ccc(F)cc3)c(CC(=O)N3CCSC3(C)C)n2c1` [Compound 14, 1-(2,2-Dimethyl-1,3-thiazolidin-3-yl)-2-[2-(4-fluorophenyl)-6-methylimidazo[1,2-a]pyridin-3-yl]ethan-1-one]: 551 nM and 552 nM.
As usually defined, the EC50 is the concentration needed to bring the measured effect to its halfway point. The low end stands for higher potency in that assay, the high end for lower potency in that assay. `Cc1ccc2nc(-c3ccc(F)cc3)c(CC(=O)N3CCSC3)n2c1` [Compound 15, 2-[2-(4-Fluorophenyl)-6-methylimidazo[1,2-a]pyridin-3-yl]-1-(1,3-thiazolidin-3-yl)ethan-1-one]: the EC50 in data set [3] worked out at 743 ± 136 nM. Further, the “Permeability Pe ± SD” value in data set [2] is on record as 7.89 ± 1.35 ·10^–6 cm/s. Moreover, the Papp at 5 h, 100 μM in data set [2] is over 4 ×10⁻⁶ cm/s. Also, the “Reduction of intracellular calcium levels” value in data set [4] was at most 50%. Moreover, the “X [%], percentage of dead cells, ToxiLight Assay (per cent of control with whole lysis cells)” value was determined as 67% in data set [5] (1E-04 M); 108% in data set [5] (1E-05 M); 110% in data set [5] (1E-06 M); 107% in data set [5] (1E-07 M); 108% in data set [5] (1E-08 M); 101% in data set [5] (1E-09 M). Also, the “X [%], percentage of dead cells, ToxiLight Assay (per cent of control with whole lysis cells)” value in data set [5] (3E-05 M) amounted to 96%; in data set [5] (3E-06 M), 105%. In addition, the “X [%], percentage of live cells, PrestoBlue Assay (per cent of vehicle DMSO)” value amounted to 14% in data set [6] (1E-04 M); 12% in data set [6] (1E-05 M); 16% in data set [6] (1E-06 M); 14% in data set [6] (1E-07 M); 15% in data set [6] (1E-08 M); 14% in data set [6] (1E-09 M). For the same compound, the “X [%], percentage of live cells, PrestoBlue Assay (per cent of vehicle DMSO)” value in data set [6] (3E-05 M) and in data set [6] (3E-06 M) was 15% each time.
As for `Cc1ccc2nc(-c3ccc(F)cc3)c(CC(=O)NC3CCNC3)n2c1` (stereo not shown) [Compound 16, 2-[2-(4-Fluorophenyl)-6-methylimidazo[1,2-a]pyridin-3-yl]-N-(pyrrolidin-3-yl)acetamide], the Ki in data set [1] was < 200 nM and 140 nM. For the same compound, the Papp at 5 h, 100 μM in data set [2] was 0.154 ± 0.005 ×10⁻⁶ cm/s.
In the case of `CN1C(=O)CN=C(c2ccccc2)c2cc(Cl)ccc21` [diazepam, reference compound], the inhibition constant Ki in data set [1] worked out at 5.6 ± 0.7 nM.
As for `CCN1CCCC1CNC(=O)c1cc(S(N)(=O)=O)ccc1OC` (stereo not shown) [sulpiride, reference compound], in data set [2], the “Permeability Pe ± SD” value is 0.016 ± 0.003 ·10^–6 cm/s.

The record behind these values is PMC12186843, “Targeting GABAergic Hypofunction Associated with Schizophrenia: Identification of α1β2γ2GABA‑A Receptor Ligands with Neuroprotective and Antipsychotic Properties” (ACS Chemical Neuroscience, 2025).
